This is an account of results in patent publication US6334996B1, “Chelators that predominantely form a single stereoisomeric species upon coordination to a metal center” (Resolution Pharmaceuticals Inc., priority 1997, dated 2002).

Data set [1] can be described thus: log D of the metal complexes. Format: physicochemical. Conditions: ^99mTc complex.
For data set [2] the following is noted: humans; cited from earlier work.

For the molecule `CN(C)CC(=O)N[C@H](C(=O)N[C@@H](CS)C(=O)NCC(=O)O)C(C)(C)C` [^99mTc complex of dimethylglycine-t-butylglycine-cysteine-glycine, metal not drawn], in data set [1], the logD is -1.3. In the case of “Tc complex of 2,3-bis(mercaptoacetamide)propanoate [syn isomer of the Tc complex of 2,3-bis(mercaptoacetamide)propanoate (map)]”, the “excreted at 30 minutes” value in data set [2] was 58%. With “Tc complex of 2,3-bis(mercaptoacetamide)propanoate [anti isomer of the Tc complex of 2,3-bis(mercaptoacetamide)propanoate (map)]”, the “excreted at 30 minutes” value in data set [2] was 19%. In data set [1], `CN(C)CC(=O)N[C@@H](CO)C(=O)N[C@@H](CS)C(=O)NCC(=O)O` [^99mTc complex of dimethylglycine-serine-cysteine-glycine, metal not drawn] registered a logD of -2.3.
